According to patent publication US20240043439A1, “COMPOUNDS AS C5AR INHIBITORS” (Kira Pharmaceuticals (Suzhou) Ltd., priority 2020, published 2024):

Columns and labels:
[1] = target: human C5a receptor (C5aR) (Homo sapiens (Human), UniProt P21730); test: Inhibition of C5a-C5aR binding (biotinylated human C5a, U937/C5aR cells, FACS)
Method: U937 cells were originally obtained from the American Type Culture Collection (ATCC) and transfected with human C5a receptor (C5aR). U937/C5aR cells were cultured at 37° C., 5% CO2 in RPMI1640 (Gibco) supplemented with 10% FBS (Gibco) and 350 µg/ml Geneticin (Gibco) and passaged every 3 days to maintain the density range from […] to 2×10^6 cells/ml.
Human C5a biotinylation was performed according to the procedure provided by manufacturer (Thermo Scientific, A39257). 10 mM solution of Sulfo-NHS-LC-Biotin was prepared by adding 180μl ultrapure H2O to the 1 mg vial immediately. 12 μl 10 mM biotin reagent was added to […] human C5a solution, gently pipetted for 3 seconds, and incubated on ice for 2 hours. Amicon ultra-0.5 centrifuge filter device (Millipore, UFC5003BK) was pre-rinsed with Milli-Q H2O, centrifuged at 14000 g for 5 min immediately before use. Up to […] sample (diluted by PBS) was added to the device and capped. The device was spinned at 14000 g for approximately 5 min. 250 μl PBS was added to the filter device, spinned at 14000 g for 5 min, and repeatedly washed 6 times. The filter device was separated from the microcentrifuge tube and placed upside down in a clean microcentrifuge tube, spinned for 2 min at 1000 g to transfer the concentrated sample from the device to the tube.
U937/C5aR cells were collected and washed twice by PBS, cells were suspended in PBS+0.1% BSA buffer at the density of 3×10^6 cells/ml. 100 μl cell suspension was added to a 96 well microplate. 50 μl compound diluted in assay buffer and 50 μl biotinylated ligand human C5a (30 nM) were added to corresponding wells in order and the plate was incubated on ice for 120 min and then centrifuged at 1000 rpm for 3-5 min at 4° C. Supernatant was removed and cells were washed by pre-cold PBS twice. 100 μl FITC conjugated streptavidin was added to cells, incubated on ice for another 30 min, and then centrifuged at 1000 rpm for 3-5 min at 4° C. Supernatant was removed and cells were washed by pre-cold PBS twice. 150 μl PBS was added to suspend the cells and signals were detected by FACS (Beckman, Cytoflex).

C5aR = C5aR (Homo sapiens (Human), UniProt P21730); test: Calcium mobilization (U937/C5aR or HEK293/C5aR cells, FLIPR); type: cell-based; settings: agonist human C5a at EC80, FLIPR
Chain of C5aR (P21730 whole entry): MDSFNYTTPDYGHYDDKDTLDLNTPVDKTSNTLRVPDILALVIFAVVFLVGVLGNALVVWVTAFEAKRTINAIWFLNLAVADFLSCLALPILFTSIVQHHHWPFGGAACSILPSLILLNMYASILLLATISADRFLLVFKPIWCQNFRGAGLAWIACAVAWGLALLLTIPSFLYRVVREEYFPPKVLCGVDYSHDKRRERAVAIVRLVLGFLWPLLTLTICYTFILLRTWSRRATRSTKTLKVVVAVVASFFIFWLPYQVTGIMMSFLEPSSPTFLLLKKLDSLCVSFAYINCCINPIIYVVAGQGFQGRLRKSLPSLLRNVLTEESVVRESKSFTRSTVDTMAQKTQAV
Method: U937/C5aR cells or HEK293/C5aR cells were washed by PBS and suspended in growth media at the density of 1×10^6 cells/ml. […] to the 384-well plate and culture for overnight. Transfer 250 nl compound solution to the cell plate using Echo, incubate for 60 min. Cells were added with Fluo-4 Direct™ dye and incubate for 50 min at 37° C. 5% CO2 and 10 m at room temperature. Place the cell plate into […] (Molecular Devices). Transfer 10 μl of 5-fold EC80 concentrations of agonist human C5a to the cell plates.

Chain of human C5a receptor (C5aR) (P21730 whole entry): as above

Row | IC50 [1] | IC50 (C5aR) | Molecule
1 | 2 to 5 µM | – | Cc1cccc(F)c1C(=O)N1C2COC[C@@H]2C[C@H](C(=O)Nc2ccc3c(cnn3C)c2)[C@@H]1c1ccc(NC2CCOCC2)cc1 (relative stereo) [Compound 134, cis-1-(2-fluoro-6-methylbenzoyl)-N-(1-methyl-1H-indazol-5-yl)-2-(4-((tetrahydro-2H-pyran-4-yl)amino)phenyl)octahydrofuro[3,4-b]pyridine-3-carboxamide]
2 | 2 to 5 µM | – | Cc1cccc(F)c1C(=O)N1[C@@H]2CCC[C@@H]2C[C@H](C(=O)Nc2ccc3c(cnn3CCN(C)C)c2)[C@@H]1c1ccc(NC2CCOCC2)cc1 [Compound 103, (2R,3S,4aR,7aR)-N-(1-(2-(dimethylamino)ethyl)-1H-indazol-5-yl)-1-(2-fluoro-6-methylbenzoyl)-2-(4-((tetrahydro-2H-pyran-4-yl)amino)phenyl)octahydro-1H-cyclopenta[b]pyridine-3-carboxamide]
3 | 2 to 5 µM | – | Cc1cccc(F)c1C(=O)N1[C@@H]2CCC[C@@H]2C[C@H](C(=O)Nc2ccc3nn(CCO)cc3c2)[C@@H]1c1ccc(NC2CCOCC2)cc1 [Compound 104, (2R,3S,4aR,7aR)-1-(2-fluoro-6-methylbenzoyl)-N-(2-(2-hydroxyethyl)-2H-indazol-5-yl)-2-(4-((tetrahydro-2H-pyran-4-yl)amino)phenyl)octahydro-1H-cyclopenta[b]pyridine-3-carboxamide]
4 | 2 to 5 µM | – | Cc1cccc(F)c1C(=O)N1[C@@H]2CCC[C@@H]2C[C@H](C(=O)Nc2ccc3nn(CCN(C)C)cc3c2)[C@@H]1c1ccc(NC2CCOCC2)cc1 [Compound 105, (2R,3S,4aR,7aR)-N-(2-(2-(dimethylamino)ethyl)-2H-indazol-5-yl)-1-(2-fluoro-6-methylbenzoyl)-2-(4-((tetrahydro-2H-pyran-4-yl)amino)phenyl)octahydro-1H-cyclopenta[b]pyridine-3-carboxamide]
5 | 2 to 5 µM | – | Cc1cccc(F)c1C(=O)N1[C@@H]2CCC[C@@H]2C[C@H](C(=O)Nc2ccc3c(cnn3Cc3cccnc3)c2)[C@@H]1c1ccc(NC2CCOCC2)cc1 [Compound 107, (2R,3S,4aR,7aR)-1-(2-fluoro-6-methylbenzoyl)-N-(1-(pyridin-3-ylmethyl)-1H-indazol-5-yl)-2-(4-((tetrahydro-2H-pyran-4-yl)amino)phenyl)octahydro-1H-cyclopenta[b]pyridine-3-carboxamide]
6 | – | 2 to 10 µM | Cc1ccc(NC(=O)[C@H]2CCCN[C@H]2c2ccc(N(c3ncnc4ccccc34)C3CCCC3)cc2)cc1C(F)(F)F [Compound 177, (2R,3S)-2-(4-(cyclopentyl(quinazolin-4-yl)amino)phenyl)-N-(4-methyl-3-(trifluoromethyl)phenyl)piperidine-3-carboxamide]
7 | – | 2 to 10 µM | Cc1ccc(NC(=O)[C@H]2CCCN[C@H]2c2ccc(N(c3ncnc4cnccc34)C3CCCC3)cc2)cc1C(F)(F)F [Compound 178, (2R,3S)-2-(4-(cyclopentyl(pyrido[3,4-d]pyrimidin-4-yl)amino)phenyl)-N-(4-methyl-3-(trifluoromethyl)phenyl)piperidine-3-carboxamide]
8 | – | 2 to 10 µM | Cc1ccc(NC(=O)[C@H]2CCCN[C@H]2c2ccc(N(c3nncc4ccccc34)C3CCCC3)cc2)cc1C(F)(F)F [Compound 179, (2R,3S)-2-(4-(cyclopentyl(phthalazin-1-yl)amino)phenyl)-N-(4-methyl-3-(trifluoromethyl)phenyl)piperidine-3-carboxamide]
9 | – | 2 to 10 µM | Cc1ccc(CNC(=O)[C@H]2C[C@H]3CCC[C@H]3N(C(=O)c3c(C)cccc3F)[C@H]2c2ccc(NC3CCCC3)cc2)cc1C(F)(F)F [Compound 185, (2R,3S,4aR,7aR)-2-(4-(cyclopentylamino)phenyl)-1-(2-fluoro-6-methylbenzoyl)-N-(4-methyl-3-(trifluoromethyl)benzyl)octahydro-1H-cyclopenta[b]pyridine-3-carboxamide]

Continued, molecule first:

Row | Molecule | IC50 [1] | IC50 (C5aR)
10 | Cc1ccc(NC(=O)C2C[C@@H]3CCC[C@@H]3N(C(=O)c3c(C)cccc3F)C2c2ccc(NC3CCCC3)cc2)cc1C(F)(F)F (relative stereo) [Compound 155, cis-2-(4-(cyclopentylamino)phenyl)-1-(2-fluoro-6-methylbenzoyl)-N-(4-methyl-3-(trifluoromethyl)phenyl)octahydro-1H-cyclopenta[b]pyridine-3-carboxamide] | 0.5 to 2 µM | –
11 | Cc1ccc(NC(=O)C2CC(O)CN(C(=O)c3c(C)cccc3F)C2c2ccc(NC3CCCC3)cc2)cc1C(F)(F)F (stereo not shown) [Compound 42, 2-(4-(cyclopentylamino)phenyl)-1-(2-fluoro-6-methylbenzoyl)-5-hydroxy-N-(4-methyl-3-(trifluoromethyl)phenyl)piperidine-3-carboxamide] | < 0.05 µM | –
12 | Cc1cccc(F)c1C(=O)N1[C@@H]2CCC[C@@H]2C[C@H](C(=O)Nc2ccc3c(cnn3C3COC3)c2)[C@@H]1c1ccc(NC2CCCC2)cc1 [Compound 83, (2R,3S,4aR,7aR)-2-(4-(cyclopentylamino)phenyl)-1-(2-fluoro-6-methylbenzoyl)-N-(1-(oxetan-3-yl)-1H-indazol-5-yl)octahydro-1H-cyclopenta[b]pyridine-3-carboxamide] | 2 to 5 µM | –
13 | Cc1cccc(F)c1C(=O)N1[C@@H]2CCC[C@@H]2C[C@H](C(=O)Nc2ccc3[nH]ncc3c2)[C@@H]1c1ccc(NC2CCCC2)cc1 [Compound 84, (2R,3S,4aR,7aR)-2-(4-(cyclopentylamino)phenyl)-1-(2-fluoro-6-methylbenzoyl)-N-(1H-indazol-5-yl)octahydro-1H-cyclopenta[b]pyridine-3-carboxamide] | < 0.05 µM | –
14 | Cc1cccc(F)c1C(=O)N1[C@@H]2CCC[C@@H]2C[C@H](C(=O)Nc2ccc3c(cnn3Cc3ccccn3)c2)[C@@H]1c1ccc(NC2CCOCC2)cc1 [Compound 92, (2R,3S,4aR,7aR)-1-(2-fluoro-6-methylbenzoyl)-N-(1-(pyridin-2-ylmethyl)-1H-indazol-5-yl)-2-(4-((tetrahydro-2H-pyran-4-yl)amino)phenyl)octahydro-1H-cyclopenta[b]pyridine-3-carboxamide] | 2 to 5 µM | –
15 | Cc1cccc(F)c1C(=O)N1[C@@H]2CCC[C@@H]2C[C@H](C(=O)Nc2ccc3ncccc3c2)[C@@H]1c1ccc(NC2CCOCC2)cc1 [Compound 95, (2R,3S,4aR,7aR)-1-(2-fluoro-6-methylbenzoyl)-N-(quinolin-6-yl)-2-(4-((tetrahydro-2H-pyran-4-yl)amino)phenyl)octahydro-1H-cyclopenta[b]pyridine-3-carboxamide] | 0.5 to 2 µM | –
16 | Cc1cccc(F)c1C(=O)N1[C@@H]2CCC[C@@H]2C[C@H](C(=O)Nc2ccc3nn(C)cc3c2)[C@@H]1c1ccc(NC2CCOCC2)cc1 [Compound 97, (2R,3S,4aR,7aR)-1-(2-fluoro-6-methylbenzoyl)-N-(2-methyl-2H-indazol-5-yl)-2-(4-((tetrahydro-2H-pyran-4-yl)amino)phenyl)octahydro-1H-cyclopenta[b]pyridine-3-carboxamide] | 0.5 to 2 µM | –
17 | Cc1cccc(F)c1C(=O)N1[C@@H]2CCC[C@@H]2C[C@H](C(=O)Nc2ccc3c(cnn3C3COC3)c2)[C@@H]1c1ccc(NC2CCOCC2)cc1 [Compound 99, (2R,3S,4aR,7aR)-1-(2-fluoro-6-methylbenzoyl)-N-(1-(oxetan-3-yl)-1H-indazol-5-yl)-2-(4-((tetrahydro-2H-pyran-4-yl)amino)phenyl)octahydro-1H-cyclopenta[b]pyridine-3-carboxamide] | 2 to 5 µM | –
18 | Cc1cccc(F)c1C(=O)N1[C@@H]2CCC[C@@H]2C[C@H](C(=O)Nc2ccc3c(cnn3CCO)c2)[C@@H]1c1ccc(NC2CCOCC2)cc1 [Compound 102, (2R,3S,4aR,7aR)-1-(2-fluoro-6-methylbenzoyl)-N-(1-(2-hydroxyethyl)-1H-indazol-5-yl)-2-(4-((tetrahydro-2H-pyran-4-yl)amino)phenyl)octahydro-1H-cyclopenta[b]pyridine-3-carboxamide] | 2 to 5 µM | –
19 | (cis-3-(6-chloro-1,2,3,4-tetrahydroisoquinoline-2-carbonyl)-2-(4-(cyclopentylamino)phenyl)octahydro-1H-cyclopenta[b]pyridin-1-yl)(2-fluoro-6-methylphenyl)methanone [Compound 72] | – | 2 to 10 µM
